Assay results published in patent US9879050B2, “Substituted urea depsipeptide analogs as activators of the CLPP endopeptidase” (priority 2013, dated 2018).
In brackets after ≈: the same amount, converted by molar mass. Like-named read-outs stand apart in the source and are kept apart here. *1 amine or outer side, *2 acyl side, *3 side chain or, on linkers, in order; H or OH if unused. Where a SMILES comes first, the peptide text is derived from it. Bridges are numbered along the chain shown (N, C = ends). [ ]: non-standard residue; d: D form. The star is where a group is joined. ξ: configuration not given here. Phe(3,5-F2) = N[C@@H](Cc1cc(F)cc(F)c1)C(=O)O; NH(4-OCF3-phenyl) = FC(F)(F)Oc1ccc(N*)cc1; ξPro(4S-Me) = C[C@@H]1CNC(C(=O)O)C1; aThr = C[C@H](O)[C@H](N)C(=O)O; X1 = O=C(C1COCCN1[*:1])[*:2]; CO = O=C([*:1])[*:2]; ξP = O=C(O)C1CCCN1

Experiments:
[1] = Cytotoxicity assay, CellTiter-Glo cell viability; assay type: cell-based; settings: African green monkey
Description: Cytotoxicity was determined by determining the effect of compounds on cell viability. Vero (kidney epithelial cells; ATCC CCL-81) monolayers were trypsinized and 5000 cells/well were seeded (10-15% confluency) into white-wall, flat bottom 96 well microwell plates (Corning) using enriched Dulbecco's Modified Eagle's Medium (Hyclone: DMEM/High Glucose) containing 10% Fetal Bovine Serum (ATCC-30-2020). Plates were incubated overnight at 37° C. in the presence of 5% CO2. Drug-free media was then replaced with media containing serial dilutions of test compound or DMSO carrier. After an additional 72 hours of incubation, viability was indirectly measured using the CellTiter-Glo® Luminescent Cell Viability (Promega) assay. Assay plates were read at peak emission wavelength of 560 nm using a EnVision® Multilabel Plate Reader (Perkin Elmer) or PHERAstar FS Multilabel reader (BMG, Cary, N.C.). […] USA, www.graphpad.com]. For each experiment, compounds were tested in duplicate. IC50 values presented are the range of two biologically independent experiments.

S. aureus USA 300 ΔClpP = test: Minimal inhibitory concentration, microbroth dilution; assay type: cell-based, Staphylococcus aureus; settings: ClpP inactivated strain
Description: (§1) Minimal inhibitory concentrations (“MICs”) were determined using the microbroth dilution method according to Clinical Laboratory Standards Institute (CLSI; National, C.F. C. L. S., Methods for Dilution Antimicrobial Susceptibility Tests for Bacteria Grow aerobically-Seventh Edition: Approved Standard M7-A7, CLSI, Wayne, Pa., USA, 2008) and were read by visual inspection. Two fold serial dilutions of test compound in 100 μL of the appropriate broth media were first prepared in 96-well round bottom microtiter plates (Nalgene Nunc International, Rochester, N.Y., USA). An equivalent volume (100 μL) of bacterial broth inocula containing approximately 10^5 bacterial cfu/mL was added to each well to give final concentrations of test compound starting at 200 μM. The plates were then incubated aerobically at 37° C. All strains were incubated overnight. After incubations, in all cases the MIC was recorded as the lowest concentration of drug that prevented bacterial growth. The bacterial strains for which MIC was determined as described in Table 4.

Sa-ClpP [2] = target: T1, Sa-ClpP (Staphylococcus aureus, UniProt Q2G036); test: ClpP activation, EnzCheck Protease Assay with Bodipy-FL casein (second described method); assay type: biochemical, S. aureus
T1 construct: made in house; host or cells: E. coli BL21 (DE3)
T1 sequence (Q2G036 whole entry): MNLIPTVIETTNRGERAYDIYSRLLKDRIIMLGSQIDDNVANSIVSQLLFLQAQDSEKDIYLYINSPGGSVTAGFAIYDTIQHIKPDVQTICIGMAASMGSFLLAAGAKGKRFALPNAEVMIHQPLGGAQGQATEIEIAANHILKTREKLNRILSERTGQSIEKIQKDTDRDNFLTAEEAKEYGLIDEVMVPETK
Description: Alternatively, the assay was carried out using EnzCheck Protease Assay (Molecular Probes, Catalog #E6638). The assay was performed in black 384 well, flat bottom, low volume plates (Greiner Bio-One, Monroe, N.C., catalog #784076). 10 μL of Tris.HCl buffer, pH 8.0 with 0.01% Triton X-100 was pipetted into each well using a Well-Mate (Thermo Scientific, Waltham, Mass.). 0.4 μL test compounds or controls (2% DMSO v/v) were added to each well using a Biomek FX liquid handling robot (Beckman Coulter, Indianapolis Ind.). After addition of test compounds and controls, 10 μL of master mix containing 2 μM Sa-ClpP and 2 μM substrate (Bodipy-FL labeled casein) in Tris*HCl buffer, pH 8.0 with 0.01% (v/v) Triton X-100, was pipetted into each well. All assays were performed in triplicate, under linear velocity conditions. Increase in fluorescent signal following activation of Sa-ClpP by test compounds and controls was measured over time period of 30 mins using filters with excitation at 485±15 nm and emission at 520±25 nm on a PHERAstar FS Multilabel reader (BMG, Cary, N.C.). […] Data analysis was done by measuring rate of casein degradation over time (slopes). Computed degradation rates (slopes) were normalized to positive (ADEP4) or negative (DMSO) controls. Using nonlinear regression curve fitting EC50 values and % activation were determined using the equation “log [agonist]vs. Response-variable slope (four parameters)-symmetrical” in the program Prism 6 (GraphPad Software, La Jolla, Calif. USA, www.graphpad.com).

S. aureus ATCC 29213 = test: Minimal inhibitory concentration, microbroth dilution; assay type: cell-based; settings: Staphylococcus aureus, ATCC29213, read-out: Minimal Inhibitory Concentration S. aureus ATCC 29213
Description: as §1

S. pyogenes ATCC 700294 = test: as above; assay type: cell-based; settings: Streptococcus pyogenes, ATCC700294, read-out: Minimal Inhibitory Concentration S. pyogenes ATCC 700294
Description: (§2) Minimal inhibitory concentrations (“MICs”) were determined using the microbroth dilution method according to Clinical Laboratory Standards Institute (CLSI; National, C.F. C. L. S., Methods for Dilution Antimicrobial Susceptibility Tests for Bacteria Grow aerobically-Seventh Edition: Approved Standard M7-A7, CLSI, Wayne, Pa., USA, 2008) and were read by visual inspection. Two fold serial dilutions of test compound in 100 μL of the appropriate broth media were first prepared in 96-well round bottom microtiter plates (Nalgene Nunc International, Rochester, N.Y., USA). […] The plates were then incubated aerobically at 37° C. All strains were incubated overnight. After incubations, in all cases the MIC was recorded as the lowest concentration of drug that prevented bacterial growth. The bacterial strains for which MIC was determined as described in Table 4.

S. pneumoniae R6 = test: as above; assay type: cell-based
Description: as §2

Sa-ClpP [3] = target: T1, Sa-ClpP; test: ADEP displacement fluorescence polarization assay; assay type: binding, S. aureus
Description: A fluorescence polarization (FP) assay was used to determine the activity of the disclosed compounds in displacing an ADEP analogue from ClpP. Briefly, the assay was performed in black 384 well, flat bottom, low volume plates (Greiner Bio-One, Monroe, N.C., catalog #784076). 20 μL of a pre-equilibrated (1 hr, room temperature) master mix (1 μM Sa-ClpP, 2% DMSO (v/v) and 50 nM FP probe in Tris*HCl, pH 8.0)) was pipetted into each well using a Well-Mate (Thermo Scientific, Waltham, Mass.). Sa-ClpP was prepared as described above for the ClpP activation assay. The FP probe was ADEP 2591 (structure shown above). The ADEP 2591 comprises a TAMRA fluorophore linked to a core based on modified ADEP 2378 via a short alkyl linker. Using pin transfer, approximately 0.4 μL (2% v/v DMSO) of each compound or control was added per well. After addition of compounds and controls, plates were allowed to incubate for an additional 120 minutes at room temperature. All assays were performed in triplicate. Polarization was monitored using an EnVision Multilabel reader (Perkin-Elmer, Waltham, Mass.) by exciting the FP probe at 530±25 nm, and monitoring fluorescence intensity of both parallel and perpendicular polarized light at 579±25 nm. Readout was in millipolarization units (mP).
Signal gain and G factors were determined in wells containing 20 μM ADEP 2378, which had been previously verified (data not shown) as containing completely unbound ADEP 2591. Data collected was normalized to values obtained from positive (20 μM ADEP 2378) or negative (DMSO) controls. Curves were fit with non-linear regression using the equation “log [inhibitor]vs. Response-variable slope (four parameters)-symmetrical” in the program Prism 6 (GraphPad Software, La Jolla, Calif. USA, www.graphpad.com). The structures for ADEP 2378 and ADEP 2591 are shown above. ADEP 2378 is (E)-N-((S)-1-(((2R,6S,8aS,14aS,20S,23aS)-2,6-dimethyl-5,8,14,19,23-pentaoxooctadecahydro-1H,5H,14H,19H-pyrido[2,1-i]dipyrrolo[2,1-c:2′,1′-1][1]oxa[4,7,10,13]tetraazacyclohexadecin-20-yl)amino)-1-oxo-3-phenylpropan-2-yl)pent-2-enamide. ADEP 2591 is 5-(3-(3-((6S,9S,11aS,17S,20aS)-6,10-dimethyl-5,8,11,16,20-pentaoxo-17-((S)-2-((E)-pent-2-enamido)-3-phenylpropanamido)hexadecahydro-1H,5H,16H-dipyrrolo[2,1-c:2′,1′-1][1]oxa[4,7,10,13]tetraazacyclohexadecin-9-yl)propyl)thioureido)-2-(6-(dimethylamino)-3-(dimethyliminio)-3H-xanthen-9-yl)benzoate.

[4] = Streptococcus pneumoniae, R6; read-out: Minimal Inhibitory Concentration S. pneumoniae R6

## Cc1ccc(NC(=O)N[C@@H](Cc2cc(F)cc(F)c2)C(=O)N[C@H]2COC(=O)C3C[C@H](C)CN3C(=O)[C@H](C)NC(=O)C3CCCCN3C(=O)C3CCCN3C2=O)cc1 (stereo partly drawn) [Compound 45, (S)-3-(3,5-Difluorophenyl)-N-((2S,6S,8aS,14aS,20S,23aS)-2,6-Dimethyl-5,8,14,19,23-Pentaoxooctadecahydro-1H,5H,14H,19H-Pyrido[2,1-I]Dipyrrolo[2,1-C:2′,1′-L][1]Oxa[4,7,10,13]Tetraazacyclohexadecin-20-Yl)-2-(3-(P-Tolyl)Ureido)Propanamide]
[1]; Vero cells, 72 hours, read-out: Cytotoxicity IC50
  IC50 at 72 h: 56.8 ± 6.7 µM
S. aureus USA 300 ΔClpP
  Minimal Inhibitory Concentration S. aureus USA 300 ΔClpP: 100 µM
Sa-ClpP [2]; read-out: ClpP Activation EC50 (converted)
  EC50: 0.54 ± 0.03 µM
S. aureus ATCC 29213
  MIC: 0.4 µM (≈ 0.318 µg/mL)
S. pyogenes ATCC 700294
  MIC: 0.4 µM (≈ 0.318 µg/mL)
S. pneumoniae R6; Streptococcus pneumoniae, R6, read-out: Minimal Inhibitory Concentration S. pneumoniae R6
  MIC: 0.1 µM (≈ 0.0794 µg/mL)
Sa-ClpP [3]; 1 μM Sa-ClpP, 50 nM FP probe ADEP 2591, read-out: ADEP Displacement IC50
  IC50: 6.62 ± 0.2 µM

## CCc1ccc(NC(=O)N[C@@H](Cc2cc(F)cc(F)c2)C(=O)N[C@@H]2C(=O)N3CCCC3C(=O)N(C)[C@@H](C)C(=O)N[C@@H](C)C(=O)N3CCCC3C(=O)O[C@H]2C)cc1 (stereo partly drawn) [Compound 29, (2S)-3-(3,5-Difluorophenyl)-2-(3-(4-Ethylphenyl)Ureido)-N-((6S,9S,11aS,17S,18S)-6,9,10,18-Tetramethyl-5,8,11,16,20-Pentaoxohexadecahydro-1H,5H,16H-Dipyrrolo[2,1-C:2′,1′-L][1]Oxa[4,7,10,13]Tetraazacyclohexadecin-17-Yl)Propanamide]
[1]
  IC50 at 72 h: 26.8 ± 1.3 µM
S. aureus USA 300 ΔClpP
  Minimal Inhibitory Concentration S. aureus USA 300 ΔClpP: 100 µM
Sa-ClpP [2]
  EC50: 0.25 ± 0.02 µM
S. pneumoniae R6; [4]
  MIC: 0.031 µM (≈ 0.0242 µg/mL)
Sa-ClpP [3]
  IC50: 5.9 ± 0.2 µM

## C[C@@H]1CC2C(=O)O[C@@H](C)[C@H](NC(=O)[C@H](Cc3cc(F)cc(F)c3)NC(=O)Nc3ccc(OC(F)(F)F)cc3)C(=O)N3CCCC3C(=O)N3CCCCC3C(=O)N[C@@H](C)C(=O)N2C1 (stereo partly drawn) [Compound 40, (S)-3-(3,5-Difluorophenyl)-2-(3-(4-(Trifluoromethoxy)Phenyl)Ureido)-N-((2R,6S,8aS,14aS,20S,21S,23aS)-2,6,21-Trimethyl-5,8,14,19,23-Pentaoxooctadecahydro-1H,5H,14H,19H-Pyrido [2,1-I]Dipyrrolo[2,1-C:2′,1′-L][1]Oxa[4,7,10,13]Tetraazacyclohexadecin-20-Yl)Propanamide]
[1]
  IC50 at 72 h: 43.8 ± 5.1 µM
S. aureus USA 300 ΔClpP
  Minimal Inhibitory Concentration S. aureus USA 300 ΔClpP: 25 µM
Sa-ClpP [2]
  EC50: 0.36 ± 0.03 µM
S. pneumoniae R6; [4]
  MIC: 0.1 µM (≈ 0.0878 µg/mL)
Sa-ClpP [3]
  IC50: 12.7 ± 0.7 µM

## C[C@H]1CC2C(=O)O[C@@H](C)[C@H](NC(=O)[C@H](Cc3cc(F)cc(F)c3)NC(=O)Nc3ccc(OC(F)(F)F)cc3)C(=O)N3CCCC3C(=O)N3CCOCC3C(=O)N[C@@H](C)C(=O)N2C1 (stereo partly drawn) [Compound 34, (S)-3-(3,5-Difluorophenyl)-2-(3-(4-(Trifluoromethoxy)Phenyl)Ureido)-N-((6aS,12S,13S,15aS,17S,21S,23aS)-13,17,21-Trimethyl-6,11,15,20,23-Pentaoxooctadecahydro-6H,11H,15H-[1,4]Oxazino[3,4-I]Dipyrrolo[2,1-C:2′,1′-L][1]Oxa[4,7,10,13]Tetraazacyclohexadecin-12-Yl)Propanamide] ({NH(4-OCF3-phenyl)-CO}-[Phe(3,5-F2)][aThr][ξP][X1]A[ξPro(4S-Me)]; ester 2-C)
[1]
  IC50 at 72 h: 26 ± 2.6 µM
S. aureus USA 300 ΔClpP
  Minimal Inhibitory Concentration S. aureus USA 300 ΔClpP: 50 µM
Sa-ClpP [2]
  EC50: 0.33 ± 0.01 µM
S. pneumoniae R6; [4]
  MIC: 0.049 µM (≈ 0.0431 µg/mL)
Sa-ClpP [3]
  IC50: 6.1 ± 0.4 µM

## C[C@H]1CC2C(=O)OC[C@H](NC(=O)[C@H](Cc3ccccc3)NC(=O)Nc3ccc(OC(F)(F)F)cc3)C(=O)N3CCCC3C(=O)N3CCCCC3C(=O)N[C@@H](C)C(=O)N2C1 (stereo partly drawn) [Compound 44, (S)—N-((2S,6S,8aS,14aS,20S,23aS)-2,6-Dimethyl-5,8,14,19,23-Pentaoxooctadecahydro-1H,5H,14H,19H-Pyrido[2,1-I]Dipyrrolo[2,1-C:2′,1′-L][1]Oxa[4,7,10,13]Tetraazacyclohexadecin-20-Yl)-3-Phenyl-2-(3-(4-(Trifluoromethoxy)Phenyl)Ureido)Propanamide]
[1]; Vero kidney epithelial cells (ATCC CCL-81), Vero cells, 72 hours, read-out: Cytotoxicity IC50
  IC50 at 72 h: 83.8 ± 6.6 µM
S. aureus USA 300 ΔClpP
  Minimal Inhibitory Concentration S. aureus USA 300 ΔClpP: 50 µM
Sa-ClpP [2]
  EC50: 0.28 ± 0.01 µM
S. pneumoniae R6; [4]
  MIC: 0.1 µM (≈ 0.0828 µg/mL)
Sa-ClpP [3]
  IC50: 6.76 ± 0.3 µM
